Source: patent US6228861A, “Dihydropyrimidines and uses thereof” (Synaptic Pharmaceutical Corporation, priority 1998, dated 2001)
Like-named read-outs stand apart in the source and are kept apart here.

Assays:
[1] = literature, BPH patients; cited from earlier work
[2] = cited from earlier work
[3] = biological target: T1, α1A Human Adrenergic Receptor (Homo sapiens, UniProt P35348); assay: [3H]prazosin radioligand binding, cloned human α1A receptor; conditions: LM(tk-) membranes, [3H]prazosin 0.5 nM, 37° C., 20 min
T1 construct: The entire coding region of α1A (1401 bp); expressed in transfected cells; membranes
T1 sequence (P35348 1-466): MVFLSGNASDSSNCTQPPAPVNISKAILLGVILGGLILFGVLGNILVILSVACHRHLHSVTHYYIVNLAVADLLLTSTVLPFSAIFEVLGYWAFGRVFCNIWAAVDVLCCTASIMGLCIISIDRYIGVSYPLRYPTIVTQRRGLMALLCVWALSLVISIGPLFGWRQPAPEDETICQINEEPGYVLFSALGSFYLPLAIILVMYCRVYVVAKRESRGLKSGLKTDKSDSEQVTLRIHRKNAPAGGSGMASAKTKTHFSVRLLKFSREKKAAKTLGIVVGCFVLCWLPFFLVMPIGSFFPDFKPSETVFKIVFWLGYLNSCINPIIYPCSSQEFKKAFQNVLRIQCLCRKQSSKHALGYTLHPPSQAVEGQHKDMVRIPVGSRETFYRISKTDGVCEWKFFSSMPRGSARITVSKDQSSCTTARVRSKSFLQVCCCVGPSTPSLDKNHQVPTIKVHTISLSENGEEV
Method: (§1) Binding affinities were measured for selected compounds of the invention at six cloned human alpha-1 and alpha-2 receptor subtypes, as well as at the L-type calcium channel. The protocols for these experiments are given below.
(§2) The activity of compounds at the different human receptors was determined in vitro using cultured cell lines that selectively express the receptor of interest. These cell lines were prepared by transfecting the cloned cDNA or cloned genomic DNA or constructs containing both genomic DNA and cDNA encoding the human α-adrenergic receptors as follows:
(§3) The construct involved the ligation of partial overlapping human lymphocyte genomic and hippocampal cDNA clones: 5' sequence were contained on a 1.2 kb SmaI-XhoI genomic fragment (the vector-derived -BamHI site was used for subcloning instead of the internal insert-derived SmaI site) and 3' sequences were contained on an 1.3 kb XhoI-ClaI cDNA fragment (the ClaI site was from the vector polylinker). […]
Transfected cells from culture flasks were scraped into 5 ml of 5 mM Tris-HCl, 5 mM EDTA, pH 7.5, and lysed by sonication. […] Nonspecific binding was determined in the presence of 10 μM phentolamine. […]

[4] = biological target: T2, α1D Human Adrenergic Receptor (Homo sapiens, UniProt P25100); assay: [3H]prazosin radioligand binding, cloned human α1D receptor; conditions: LM(tk-) membranes, [3H]prazosin 0.5 nM, 37° C., 20 min
T2 construct: The entire coding region of α1D (1719 bp); expressed in transfected cells; membranes
T2 sequence (P25100 1-572): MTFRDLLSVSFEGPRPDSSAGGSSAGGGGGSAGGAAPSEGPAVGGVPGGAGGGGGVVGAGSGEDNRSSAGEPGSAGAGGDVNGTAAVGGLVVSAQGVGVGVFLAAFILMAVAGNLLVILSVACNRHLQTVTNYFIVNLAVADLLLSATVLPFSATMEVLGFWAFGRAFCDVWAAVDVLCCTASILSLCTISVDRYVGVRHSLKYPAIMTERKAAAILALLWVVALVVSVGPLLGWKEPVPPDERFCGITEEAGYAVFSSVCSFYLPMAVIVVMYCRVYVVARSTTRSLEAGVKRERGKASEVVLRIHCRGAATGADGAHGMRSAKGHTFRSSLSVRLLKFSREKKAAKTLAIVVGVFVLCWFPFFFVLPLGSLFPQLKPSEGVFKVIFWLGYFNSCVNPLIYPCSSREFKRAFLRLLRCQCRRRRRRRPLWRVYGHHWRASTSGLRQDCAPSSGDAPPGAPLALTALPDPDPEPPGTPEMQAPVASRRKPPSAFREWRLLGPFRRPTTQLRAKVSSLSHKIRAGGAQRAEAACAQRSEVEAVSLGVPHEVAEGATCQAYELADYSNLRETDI
Method: as §1, §2
The entire coding region of α1D (1719 bp), including 150 base pairs of 5' untranslated sequence t5' UT) and 300 bp of 3' untranslated sequence (3' UT), was cloned into the BamHI and ClaI sites of the polylinker-modified eukaryotic expression vector pCEXV-3, called EXJ.HR. […]
(§4) Transfected cells from culture flasks were scraped into 5 ml of 5 mM Tris-HCl, 5 mM EDTA, pH 7.5, and lysed by sonication. […] Nonspecific binding was determined in the presence of 10 μM phentolamine. […] Inhibition experiments, routinely consisting of 7 concentrations of the tested compounds, were analyzed using a non-linear regression curve-fitting computer program to obtain Ki values.

[5] = biological target: T3, α1B Human Adrenergic Receptor (Homo sapiens, UniProt P35368); assay: [3H]prazosin radioligand binding, cloned human α1B receptor; conditions: LM(tk-) membranes, [3H]prazosin 0.5 nM, 37° C., 20 min
T3 construct: The entire coding region of α1B (1563 bp); expressed in transfected cells; membranes
T3 sequence (P35368 1-520): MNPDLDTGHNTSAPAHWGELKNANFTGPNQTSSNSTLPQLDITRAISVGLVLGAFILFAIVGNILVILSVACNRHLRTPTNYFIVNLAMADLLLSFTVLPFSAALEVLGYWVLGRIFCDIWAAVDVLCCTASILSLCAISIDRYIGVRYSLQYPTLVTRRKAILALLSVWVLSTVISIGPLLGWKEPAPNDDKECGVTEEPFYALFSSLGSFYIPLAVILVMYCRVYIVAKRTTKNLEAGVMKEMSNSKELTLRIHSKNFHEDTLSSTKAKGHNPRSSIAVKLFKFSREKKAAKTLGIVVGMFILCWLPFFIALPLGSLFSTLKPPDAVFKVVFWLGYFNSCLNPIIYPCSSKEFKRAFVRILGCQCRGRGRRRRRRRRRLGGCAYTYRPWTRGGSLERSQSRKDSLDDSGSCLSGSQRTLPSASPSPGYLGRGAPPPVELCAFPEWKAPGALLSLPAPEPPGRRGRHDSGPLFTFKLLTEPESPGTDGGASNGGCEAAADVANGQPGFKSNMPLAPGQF
Method: as §1, §2, §3, §4

Row | Structure (SMILES) | usefulness in BPH [1] | side effects ([2]; literature) | other results
1 | COc1cc2nc(N3CCN(C(=O)C4CCCO4)CC3)nc(N)c2cc1OC (stereo not shown) [terazosin] | useful for treating BPH | untoward side effects | 
2 | COCC1=C(C(C)=O)C(c2cc(F)c(F)c(F)c2)N(C(=O)NCCN[C@H]2CC[C@](C#N)(c3ccccc3)CC2)C(=O)N1.Cl (stereo partly drawn) [Example 2, cis-6-(3,4,5-Trifluorophenyl)-1-{N-[2-(4-cyano-4 phenyl-cyclohexylamino)ethyl]}-carboxamido-5-acetyl-4-methoxymethyl-2-oxo-1,2,3,6 - tetrahydropyrimidine hydrochloride] |  |  | hα1A pKi [3]: 9.51; hα1D pKi [4]: 7.05; hα1B pKi [5]: 7.76
3 | CC(COc1ccccc1)N(CCCl)Cc1ccccc1 (stereo not shown) [phenoxybenzamine] | useful in relieving the symptoms of BPH | significant side effects such as dizziness and asthenia | 
4 | COc1cc2nc(N3CCN(C(=O)c4ccco4)CC3)nc(N)c2cc1OC [prazosin] | useful for treating BPH |  | side effects ([2]; in vivo): untoward side effects
5 | Clc1cccc(Cl)c1N=C1NCCN1 [clonidine] |  | dry mouth and sedation | 
